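Interpolation was linear, between the two tested concentrations surrounding the appropriate level; five concentrations were tested over 48 hours in 96-well plates. At the GI50, growth is halved.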 Active and inactive are the calls of the source. Cut-off read from the data, not from the text of the source: active = GI50 up to about 1.1 µM and inactive = higher.
Columns and labels:
Assay in all cases: growth of human tumour cells (NCI), 48 h
ACHN = test system: ACHN
U-251 = test system: U-251
Malme-3M = test system: Malme-3M
SF-268 = test system: SF-268
OVCAR-4 = test system: OVCAR-4
HCT-116 = test system: HCT-116
MCF7 = test system: MCF7
SNB-19 = test system: SNB-19
M14 = test system: M14
NCI-H522 = test system: NCI-H522
UACC-257 = test system: UACC-257
K562 = test system: K562
SK-MEL-28 = test system: SK-MEL-28
SN12C = test system: SN12C
NCI-H23 = test system: NCI-H23
NCI-H226 = test system: NCI-H226
HT-29 = test system: HT-29
SK-MEL-5 = test system: SK-MEL-5
HOP-92 = test system: HOP-92

Measured: GI50

O=c1[nH]c(=O)n(C2CC(O)C(CO)O2)cc1OCCCc1ccccc1 (stereo not given)
inactive: ACHN > 100 µM | U-251 > 100 µM | Malme-3M > 100 µM | SF-268 > 100 µM | OVCAR-4 > 100 µM | HCT-116 > 100 µM | MCF7 > 100 µM | SNB-19 > 100 µM | M14 > 100 µM | NCI-H522 > 100 µM | UACC-257 > 100 µM | K562 > 100 µM | SK-MEL-28 > 100 µM | SN12C > 100 µM | NCI-H23 > 100 µM | NCI-H226 > 100 µM | HT-29 > 100 µM | SK-MEL-5 > 100 µM

O=C(Nc1ccn(C2CC(O)C(CO)O2)c(=O)n1)c1ccccc1 (stereo not given)
inactive: ACHN > 100 µM | U-251 > 100 µM | SF-268 > 100 µM | OVCAR-4 > 100 µM | HCT-116 > 100 µM | MCF7 > 100 µM | SNB-19 > 100 µM | M14 > 100 µM | NCI-H522 > 100 µM | UACC-257 > 100 µM | K562 > 100 µM | SK-MEL-28 > 100 µM | SN12C > 100 µM | NCI-H23 > 100 µM | NCI-H226 > 100 µM | HT-29 > 100 µM | SK-MEL-5 > 100 µM

CC(=O)O[C@H]1CC[C@@]2(C)C(=C[C@H](c3ccc(O)cc3)[C@H]3[C@@H]4CC[C@H](OC(C)=O)[C@@]4(C)CC[C@@H]32)C1
inactive: HOP-92 34.4 µM | ACHN 22.6 µM | U-251 22.1 µM | Malme-3M 17.9 µM | SF-268 19 µM | OVCAR-4 15.4 µM | HCT-116 15.8 µM | MCF7 23 µM | SNB-19 19.9 µM | M14 19 µM | UACC-257 22 µM | K562 12.9 µM | SN12C 23 µM | NCI-H23 19.8 µM | NCI-H226 17.4 µM | HT-29 13.6 µM | SK-MEL-5 11.4 µM

CCCCCCCCCCCCCCCCCCNc1nc(=O)n(C2CC(O)C(COP(=O)(O)O)O2)cc1F (stereo not given)
inactive: ACHN 10.8 µM | U-251 > 100 µM | Malme-3M > 100 µM | SF-268 49.4 µM | OVCAR-4 > 100 µM | HCT-116 81.7 µM | MCF7 16.9 µM | SNB-19 > 100 µM | M14 > 100 µM | NCI-H522 > 100 µM | UACC-257 > 100 µM | K562 > 100 µM | SK-MEL-28 > 100 µM | SN12C > 95.7 µM | NCI-H23 58.1 µM | NCI-H226 38.9 µM | HT-29 > 100 µM | SK-MEL-5 > 100 µM

— ChEMBL document CHEMBL1201862, “PubChem BioAssay data set” (2004)
